Where “and” joins values, the source holds several entries; their conditions need not be identical. Equal entries are not always repeated. Where two headings read alike, the source gives them in different places.
Key:
Type in all cases: cell-based
THIK-1 S109A = target: T1, THIK-1 S109A (Homo sapiens, UniProt Q9HB14, S109A); assay: Inside-out excised patch recordings, oocytes, THIK-1 S109A mutant (lipid activation); conditions: read-out: Linoleic acid EC50
T1 construct: expressed in transfected cells; host or cells: Xenopus oocytes (mRNA injection)
T1 sequence (Q9HB14 whole entry S109A): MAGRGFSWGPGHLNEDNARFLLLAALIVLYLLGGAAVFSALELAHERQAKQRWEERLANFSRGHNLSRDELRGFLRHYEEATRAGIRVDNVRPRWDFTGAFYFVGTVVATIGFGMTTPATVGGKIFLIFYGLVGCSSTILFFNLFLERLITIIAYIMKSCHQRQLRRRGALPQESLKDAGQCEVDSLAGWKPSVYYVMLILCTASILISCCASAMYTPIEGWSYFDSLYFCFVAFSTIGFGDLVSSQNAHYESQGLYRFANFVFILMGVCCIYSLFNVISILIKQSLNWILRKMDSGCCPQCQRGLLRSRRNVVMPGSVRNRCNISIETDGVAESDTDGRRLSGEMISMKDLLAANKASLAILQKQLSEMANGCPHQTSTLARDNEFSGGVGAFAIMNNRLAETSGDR
From the text: Supplement 41594_2025_1497_MOESM2_ESM.xlsx, sheet "ExtData_Fig_S5f" | column: Linoleic acid EC50 (µM); S109A

THIK-1 Y102A = target: T2, THIK-1 Y102A (Homo sapiens, UniProt Q9HB14, Y102A); assay: Inside-out excised patch recordings, oocytes, THIK-1 Y102A mutant (lipid activation); conditions: read-out: Linoleic acid EC50
T2 construct: expressed in transfected cells; host or cells: Xenopus oocytes (mRNA injection)
T2 sequence (Q9HB14 whole entry Y102A): as the sequence (Q9HB14 whole entry S109A) above, with Y102A, A109S counted along it
From the text: Supplement 41594_2025_1497_MOESM2_ESM.xlsx, sheet "ExtData_Fig_S5f" | column: Linoleic acid EC50 (µM); Y102A

THIK-1-Y273W = target: T3, THIK-1-Y273W (Homo sapiens, UniProt Q9HB14, Y273W); assay: Inside-out excised patch recordings, oocytes, THIK-1 Y273W mutant
T3 construct: expressed in transfected cells; host or cells: Xenopus oocytes (mRNA injection)
T3 sequence (Q9HB14 1-408 Y273W): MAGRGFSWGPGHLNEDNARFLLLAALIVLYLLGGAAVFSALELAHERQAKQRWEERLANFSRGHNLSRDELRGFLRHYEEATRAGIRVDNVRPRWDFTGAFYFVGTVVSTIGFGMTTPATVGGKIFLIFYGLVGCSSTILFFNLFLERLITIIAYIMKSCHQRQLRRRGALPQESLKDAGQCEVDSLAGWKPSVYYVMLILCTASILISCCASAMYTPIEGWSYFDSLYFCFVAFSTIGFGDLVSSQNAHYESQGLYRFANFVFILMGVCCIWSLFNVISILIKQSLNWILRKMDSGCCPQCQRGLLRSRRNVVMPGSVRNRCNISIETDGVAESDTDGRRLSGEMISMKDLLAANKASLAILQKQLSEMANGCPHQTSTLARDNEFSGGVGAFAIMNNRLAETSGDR
From the text: Human K2P13.1 THIK-1 (GenBank accession number: NM_022054) and human K2P12.1 THIK-2 (NM_022055.1) were used in this study. For functional expression studies, the respective K^+ channel subtype coding sequences were subcloned into the oocyte expression vector pSGEM or the dual-purpose expression vector pFAW[41] and verified by sequencing. All mutant channels were obtained by site-directed mutagenesis and verified by sequencing. To increase surface expression and macroscopic currents, measurements of THIK-2 channels used a mutated ER retention motif, (R11A R12A R14A R15A R16A; THIK-2*)[20]. Vector DNA was linearized with NheI or MluI, and mRNA was synthesized in vitro using the SP6 or T7 AmpliCap Max High Yield Message Maker Kit (Cellscript, USA) or HiScribe T7 ARCA mRNA Kit (New England Biolabs).
Two-electrode voltage–clamp (TEVC) studies were performed in Xenopus oocytes. All animal use conformed to the Guide for the Care and Use of Laboratory Animals (NIH Publication 85–23), and all experiments using Xenopus toads were approved by the local ethics panels. Oocytes were stored at 17 °C in ND96 recording solution composed of (in mM): 96 NaCl, 2 KCl, 1.8 CaCl2, 1 MgCl2, 5 HEPES (pH 7.5 adjusted with NaOH and HCl), supplemented with Na-pyruvate (275 mg L^–1), theophylline (90 mg L^–1) and gentamicin (50 mg L^–1). Oocytes were injected with 1 ng mRNA for WT or mutant channels, and were incubated for 24–48 h at 17 °C. Two-electrode voltage clamp recordings were then performed as previously described[42],[43]. For macroscopic patch–clamp measurements, oocytes were obtained as described above incubated at 17 °C in a solution containing (mM): 54 NaCl, 30 KCl, 2.4 NaHCO3, 0.82 MgSO4 ×7 H2O, 0.41 CaCl2, 0.33 Ca(NO3)2 ×4 H2O and 7.5 TRIS (pH 7.4 adjusted with NaOH and HCl) for 1–4 days before use. Excised patch recordings in inside-out configuration conditions were performed at room temperature. Patch pipettes were made from thick-walled borosilicate glass GB 200TF-8P (Science Products), had resistances of 0.2–0.5 MΩ (tip diameter, 10–25 µm) and filled with a pipette solution (in mM): 120 KCl, 10 HEPES and 3.6 CaCl2 (pH 7.4 adjusted with KOH and HCl). […] Currents were recorded with an EPC10 amplifier (HEKA Electronics) and sampled at 10 kHz or higher, with filtering set to 3 kHz (–3 dB) or higher, as appropriate for sampling rate. For measurements of GPCR activation, whole-cell currents were recorded for THIK-1 in transiently transfected HEK-293 cells. […] Single-channel currents were recorded with an Axopatch 200B amplifier through a Digidata 1440A digitizer (Molecular Devices). Data were filtered at 2 kHz and recorded at a 200-kHz sampling rate with the program Clampex (Molecular Devices). […]

| Compound | EC50 (THIK-1 S109A; individual recordings) | EC50 (THIK-1 S109A; mean) | EC50 (THIK-1 Y102A; individual recordings) | EC50 (THIK-1 Y102A; mean) | τ of 1 mM TPenA block (THIK-1-Y273W; individual recordings) | τ of 1 mM TPenA release (THIK-1-Y273W; individual recordings) | τ of 1 mM TPenA block (THIK-1-Y273W; mean) | τ of 1 mM TPenA release (THIK-1-Y273W; mean) |
| --- | --- | --- | --- | --- | --- | --- | --- | --- |
| CCCCC/C=C\C/C=C\CCCCCCCC(=O)O [linoleic acid] | 47.5 µM and 45.3 µM and 76.4 µM and 21.1 µM and 36.6 µM and 51 µM and 47.6 µM and 129 µM | 56.8 µM | 104 µM and 133 µM and 58 µM and 58.2 µM and 59.6 µM and 297 µM and 47.2 µM and 49 µM and 36.2 µM | 93.6 µM |  |  |  |  |
| CCCCC[N+](CCCCC)(CCCCC)CCCCC [TPenA, tetrapentylammonium] |  |  |  |  | 13.500 s and 9.700 s and 8.400 s and 10.003 s and 8.350 s and 4.860 s and 3.160 s and 2.380 s and 2.990 s and 4.490 s and 10.150 s and 2.500 s and 2.400 s and 9.800 s and 5.700 s and 4.500 s and 4.080 s | 20.400 s and 14.700 s and 10.800 s and 14.800 s and 23.260 s and 14.350 s and 14.990 s and 14.820 s and 16.280 s and 20.350 s and 17.660 s | 6.29 s | 16.58 s |
